Reference: ChEMBL document CHEMBL4308904 (Bioorg Med Chem, 2019)
Activity calls are given as the source filed them. The calls are words filed in the database; no cut-off is given here.

Assays:
[1] = target: T1, Lysine-specific histone demethylase 1A (Homo sapiens, UniProt O60341)
Description: Inhibition of LSD1 (unknown origin) by fluorescence assay

MDA-MB-231 [2] = experiment: Antiproliferative activity against human MDA-MB-231 cells transfected with LSD1 siRNA assessed as reduction in EdU incorporation at 8 uM after 24 hrs by Hoechst 33342 staining-based confocal laser scanning microscopic analysis; format: functional, cell-based
[3] = target: T1, Lysine-specific histone demethylase 1A; experiment: Inhibition of LSD1 in human MDA-MB-231 cells assessed as increase in H3K4me2 methylation by Western blot analysis; format: cell-based
MDA-MB-231 [4] = experiment: Inhibition of colony formation in human MDA-MB-231 cells transfected with LSD1 siRNA; format: functional, cell-based
MDA-MB-231 [5] = experiment: Induction of apoptosis in human MDA-MB-231 cells transfected with LSD1 siRNA assessed as loss of mitochondrial membrane potential at 8 uM after 24 hrs by JC-1 staining-based flow cytometric analysis; format: functional, cell-based
MDA-MB-231 [6] = experiment: Induction of apoptosis in human MDA-MB-231 cells assessed as early apoptosis cells level at 8 uM after 24 hrs by Annexin V-FITC/propidium iodide staining-based flow cytometric analysis relative to control; format: functional
MDA-MB-231 [7] = experiment: Induction of apoptosis in human MDA-MB-231 cells assessed as necrosis cells level at 8 uM after 24 hrs by Annexin V-FITC/propidium iodide staining-based flow cytometric analysis relative to control; format: functional
MDA-MB-231 [8] = experiment: Induction of apoptosis in human MDA-MB-231 cells transfected with LSD1 siRNA assessed as increase in cleaved caspase-3 level at 8 uM after 24 hrs by Western blot analysis; format: functional, cell-based
MDA-MB-231 [9] = experiment: Induction of apoptosis in human MDA-MB-231 cells transfected with LSD1 siRNA assessed as chromatin condensation at 8 uM after 24 hrs by Hoechst 33342 staining-based confocal laser scanning microscopic analysis; format: functional, cell-based
MDA-MB-231 [10] = experiment: Antiproliferative activity against human MDA-MB-231 cells assessed as reduction in EdU incorporation at 8 uM after 24 hrs by Hoechst 33342 staining-based confocal laser scanning microscopic analysis; format: functional, cell-based
MDA-MB-231 [11] = experiment: Induction of apoptosis in human MDA-MB-231 cells transfected with LSD1 siRNA assessed as early apoptosis cells level at 8 uM after 24 hrs by Annexin V-FITC/propidium iodide staining-based flow cytometric analysis relative to control; format: functional
MDA-MB-231 [12] = experiment: Induction of apoptosis in human MDA-MB-231 cells transfected with LSD1 siRNA assessed as late apoptosis level at 8 uM after 24 hrs by Annexin V-FITC/propidium iodide staining-based flow cytometric analysis relative to control; format: functional
[13] = target: T1, Lysine-specific histone demethylase 1A; experiment: Inhibition of LSD1 in human MDA-MB-231 cells assessed as increase in H3K4me1 methylation by Western blot analysis; format: cell-based
[14] = target: T1, Lysine-specific histone demethylase 1A; experiment: Competitive inhibition of LSD1 (unknown origin) using H3Kme2 as substrate by Lineweaver-Burk plot analysis
MDA-MB-231 [15] = experiment: Effect on LSD1 protein levels in human MDA-MB-231 cells up to 8 uM by Western blot analysis; format: functional, cell-based
MDA-MB-231 [16] = experiment: Induction of apoptosis in human MDA-MB-231 cells transfected with LSD1 siRNA assessed as chromatinorrhexis at 8 uM after 24 hrs by Hoechst 33342 staining-based confocal laser scanning microscopic analysis; format: functional, cell-based
[17] = target: T1, Lysine-specific histone demethylase 1A; experiment: Inhibition of LSD1 in human MDA-MB-231 cells assessed as increase in H3K9me2 methylation by Western blot analysis; format: cell-based
MDA-MB-231 [18] = experiment: Antiproliferative activity against human MDA-MB-231 cells transfected with NC siRNA after 24 hrs by MTT assay; format: functional, cell-based
MDA-MB-231 [19] = experiment: Induction of apoptosis in human MDA-MB-231 cells transfected with LSD1 siRNA assessed as increase in cleaved caspase-9 level at 8 uM after 24 hrs by Western blot analysis; format: functional, cell-based
MDA-MB-231 [20] = experiment: Induction of apoptosis in human MDA-MB-231 cells transfected with LSD1 siRNA assessed as increase in BAX/Bcl-2 protein ratio at 8 uM after 24 hrs by Western blot analysis; format: functional, cell-based
MDA-MB-231 [21] = experiment: Induction of apoptosis in human MDA-MB-231 cells assessed as loss of mitochondrial membrane potential at 8 uM after 24 hrs by JC-1 staining-based flow cytometric analysis; format: functional, cell-based
MDA-MB-231 [22] = experiment: Induction of apoptosis in human MDA-MB-231 cells transfected with LSD1 siRNA assessed as increase in cleaved PARP level at 8 uM after 24 hrs by Western blot analysis; format: functional, cell-based
MDA-MB-231 [23] = experiment: Antiproliferative activity against human MDA-MB-231 cells transfected with LSD1 siRNA after 24 hrs by MTT assay; format: functional, cell-based
MDA-MB-231 [24] = experiment: Induction of apoptosis in human MDA-MB-231 cells transfected with LSD1 siRNA assessed as viable cells level at 8 uM after 24 hrs by Annexin V-FITC/propidium iodide staining-based flow cytometric analysis relative to control; format: functional
MDA-MB-231 [25] = experiment: Induction of apoptosis in human MDA-MB-231 cells assessed as late apoptosis level at 8 uM after 24 hrs by Annexin V-FITC/propidium iodide staining-based flow cytometric analysis relative to control; format: functional
MDA-MB-231 [26] = experiment: Induction of apoptosis in human MDA-MB-231 cells transfected with LSD1 siRNA assessed as increase in cleaved caspase-7 level at 8 uM after 24 hrs by Western blot analysis; format: functional, cell-based
MDA-MB-231 [27] = experiment: Induction of apoptosis in human MDA-MB-231 cells assessed as increase in BAX/Bcl-2 protein ratio at 8 uM after 24 hrs by Western blot analysis; format: functional, cell-based
[28] = target: Lysine-specific demethylase 5A (Homo sapiens) (UniProt P29375); experiment: Inhibition of JARID1 in human MDA-MB-231 cells assessed as effect on H3K4me3 methylation by Western blot analysis; format: cell-based
MDA-MB-231 [29] = experiment: Induction of apoptosis in human MDA-MB-231 cells assessed as viable cells level at 8 uM after 24 hrs by Annexin V-FITC/propidium iodide staining-based flow cytometric analysis relative to control; format: functional
MDA-MB-231 [30] = experiment: Induction of apoptosis in human MDA-MB-231 cells transfected with LSD1 siRNA assessed as necrosis cells level at 8 uM after 24 hrs by Annexin V-FITC/propidium iodide staining-based flow cytometric analysis relative to control; format: functional
[31] = target: T1, Lysine-specific histone demethylase 1A; experiment: Inhibition of LSD1 (unknown origin)

Sequence of Lysine-specific demethylase 5A (Homo sapiens) (P29375 whole entry): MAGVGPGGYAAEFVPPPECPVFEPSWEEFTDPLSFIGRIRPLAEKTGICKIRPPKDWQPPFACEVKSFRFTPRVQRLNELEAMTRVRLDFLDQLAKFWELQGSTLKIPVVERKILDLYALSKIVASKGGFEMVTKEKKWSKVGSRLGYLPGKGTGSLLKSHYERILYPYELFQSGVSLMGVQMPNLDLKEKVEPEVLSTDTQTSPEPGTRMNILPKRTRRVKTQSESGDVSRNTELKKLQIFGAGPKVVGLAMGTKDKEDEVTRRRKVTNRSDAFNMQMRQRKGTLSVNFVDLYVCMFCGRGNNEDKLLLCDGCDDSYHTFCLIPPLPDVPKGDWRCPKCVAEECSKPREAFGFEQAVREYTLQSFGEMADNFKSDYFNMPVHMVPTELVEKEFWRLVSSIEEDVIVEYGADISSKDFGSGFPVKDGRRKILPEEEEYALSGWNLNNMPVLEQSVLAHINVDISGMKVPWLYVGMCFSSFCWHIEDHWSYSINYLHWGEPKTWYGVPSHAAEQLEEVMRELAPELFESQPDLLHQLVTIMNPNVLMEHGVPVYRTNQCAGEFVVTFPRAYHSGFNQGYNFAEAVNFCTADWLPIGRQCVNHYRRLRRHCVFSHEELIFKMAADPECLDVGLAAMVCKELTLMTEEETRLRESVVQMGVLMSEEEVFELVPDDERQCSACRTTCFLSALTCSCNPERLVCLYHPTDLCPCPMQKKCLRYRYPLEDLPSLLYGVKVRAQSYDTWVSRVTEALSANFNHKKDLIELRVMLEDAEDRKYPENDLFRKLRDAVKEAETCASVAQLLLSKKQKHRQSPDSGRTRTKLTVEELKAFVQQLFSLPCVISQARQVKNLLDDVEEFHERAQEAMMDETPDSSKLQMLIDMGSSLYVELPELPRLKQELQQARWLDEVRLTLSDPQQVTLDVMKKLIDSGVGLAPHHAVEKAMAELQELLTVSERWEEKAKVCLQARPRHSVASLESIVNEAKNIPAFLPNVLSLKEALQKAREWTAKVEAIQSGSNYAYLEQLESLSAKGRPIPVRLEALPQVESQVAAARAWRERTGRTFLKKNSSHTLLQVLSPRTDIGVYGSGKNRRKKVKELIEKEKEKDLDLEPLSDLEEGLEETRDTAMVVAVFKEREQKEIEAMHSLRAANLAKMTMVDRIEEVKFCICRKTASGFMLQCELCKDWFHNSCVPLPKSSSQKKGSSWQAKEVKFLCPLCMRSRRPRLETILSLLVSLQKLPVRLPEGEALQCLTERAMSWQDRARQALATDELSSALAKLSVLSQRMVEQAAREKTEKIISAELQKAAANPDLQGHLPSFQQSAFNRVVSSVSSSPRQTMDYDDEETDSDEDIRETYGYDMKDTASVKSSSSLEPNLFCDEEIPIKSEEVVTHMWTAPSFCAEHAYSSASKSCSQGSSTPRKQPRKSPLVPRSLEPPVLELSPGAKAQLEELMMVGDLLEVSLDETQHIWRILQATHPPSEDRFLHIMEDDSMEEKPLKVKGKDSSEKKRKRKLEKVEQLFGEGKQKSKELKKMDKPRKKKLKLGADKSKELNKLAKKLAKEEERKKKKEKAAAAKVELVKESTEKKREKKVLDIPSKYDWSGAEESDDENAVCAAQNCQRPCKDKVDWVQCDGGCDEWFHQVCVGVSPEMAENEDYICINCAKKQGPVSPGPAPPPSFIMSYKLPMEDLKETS

Compound: COc1ccc(-c2oc3c(CC=C(C)C)c(O)cc(O)c3c(=O)c2O[C@@H]2O[C@@H](C)[C@H](O)[C@@H](O)[C@H]2O)cc1
- IC50 [1]: 16.7 µM

Compound: COc1ccc(-c2oc3c(CC=C(C)C)c(O)cc(O)c3c(=O)c2O)cc1 [ICARITIN]
- IC50 [1]: 64.5 µM

Compound: O=c1c(O[C@@H]2O[C@H](CO)[C@@H](O)[C@H](O)[C@H]2O)c(-c2ccc(O)c(O)c2)oc2cc(O)cc(O)c12 [ISOQUERCETIN]
- Activity (MDA-MB-231 [2]): Active
- inhibition [3]: Active
- inhibition (MDA-MB-231 [4]): Active
- Activity (MDA-MB-231 [5]): Active
- Activity (MDA-MB-231 [6]): 1%
- Activity (MDA-MB-231 [7]): 2.6%
- Activity (MDA-MB-231 [8]): Active
- Activity (MDA-MB-231 [9]): Active
- Activity (MDA-MB-231 [10]): Active
- Activity (MDA-MB-231 [11]): 3.5%
- Activity (MDA-MB-231 [12]): 38.9%
- inhibition [13]: Active
- Ki [14]: 1 µM
- Activity (MDA-MB-231 [15]): inactive
- Activity (MDA-MB-231 [16]): Active
- inhibition [17]: Active
- Activity (MDA-MB-231 [18]): Active
- IC50 [1]: 0.95 µM
- Activity (MDA-MB-231 [19]): Active
- Activity (MDA-MB-231 [20]): Active
- Activity (MDA-MB-231 [21]): Active
- Activity (MDA-MB-231 [22]): Active
- Activity (MDA-MB-231 [23]): Active
- Activity (MDA-MB-231 [24]): 56.1%
- Activity (MDA-MB-231 [25]): 10.7%
- Activity (MDA-MB-231 [26]): Active
- Activity (MDA-MB-231 [27]): Active
- inhibition [28]: inactive
- Activity (MDA-MB-231 [29]): 82.6%
- Activity (MDA-MB-231 [30]): 1.5%

Compound: COc1c(O[C@@H]2O[C@H](C(=O)O)[C@@H](O)[C@H](O)[C@H]2O)cc(O)c2c(=O)cc(-c3ccccc3)oc12
- IC50 [31]: 2.98 µM

Compound: O=C(O)[C@H]1O[C@@H](Oc2cc3oc(-c4ccccc4)cc(=O)c3c(O)c2O)[C@H](O)[C@@H](O)[C@@H]1O [BAICALIN]
- IC50 [31]: 3.55 µM

Compound: O=c1c(O)c(-c2ccc(O)c(O)c2)oc2cc(O)cc(O)c12 [QUERCETIN]
- IC50 [1]: 1.26 µM

Compound: COc1ccc([C@@H]2CC(=O)c3c(O)cc(O)cc3O2)cc1O [HESPERETIN]
- IC50 [1]: 78.8 µM

Compound: COc1ccc([C@@H]2CC(=O)c3c(O)cc(O[C@@H]4O[C@H](CO)[C@@H](O)[C@H](O)[C@H]4O)cc3O2)cc1O
- IC50 [1]: 4.74 µM

Compound: C[C@@H]1O[C@@H](OC[C@H]2O[C@@H](Oc3c(-c4ccc(O)c(O)c4)oc4cc(O)cc(O)c4c3=O)[C@H](O)[C@@H](O)[C@@H]2O)[C@H](O)[C@H](O)[C@H]1O [RUTIN]
- IC50 [1]: 2.16 µM

Compound: COc1ccc([C@@H]2CC(=O)c3c(O)cc(O[C@@H]4O[C@H](CO[C@@H]5O[C@@H](C)[C@H](O)[C@@H](O)[C@H]5O)[C@@H](O)[C@H](O)[C@H]4O)cc3O2)cc1O [HESPERIDIN]
- IC50 [1]: 19.2 µM

Compound: COc1ccc(-c2cc(=O)c3c(O)cc(O[C@@H]4O[C@H](CO)[C@@H](O)[C@H](O)[C@H]4O)cc3o2)cc1O
- IC50 [1]: 21.8 µM

Compound: O=c1cc(-c2ccccc2)oc2cc(O)c(O)c(O)c12 [BAICALEIN]
- IC50 [31]: 12.5 µM
